The values that follow come from patent US20230310532A1, “FOOD EXTRACTS, METHODS OF EXTRACTION AND COMPOSITIONS THEREOF” (National University of Singapore, priority 2020, published 2023).

This assay has as its target T1, Pancreatic lipase (from porcine pancreas, type II) (Sus scrofa, UniProt P00591).
T1 construct: Pancreatic lipase (from porcine pancreas, type II, 100-500 units/mg, L3126); purchased Sigma-Aldrich L3126; host or cells: porcine pancreas (tissue-derived)
T1 sequence (P00591 1-450): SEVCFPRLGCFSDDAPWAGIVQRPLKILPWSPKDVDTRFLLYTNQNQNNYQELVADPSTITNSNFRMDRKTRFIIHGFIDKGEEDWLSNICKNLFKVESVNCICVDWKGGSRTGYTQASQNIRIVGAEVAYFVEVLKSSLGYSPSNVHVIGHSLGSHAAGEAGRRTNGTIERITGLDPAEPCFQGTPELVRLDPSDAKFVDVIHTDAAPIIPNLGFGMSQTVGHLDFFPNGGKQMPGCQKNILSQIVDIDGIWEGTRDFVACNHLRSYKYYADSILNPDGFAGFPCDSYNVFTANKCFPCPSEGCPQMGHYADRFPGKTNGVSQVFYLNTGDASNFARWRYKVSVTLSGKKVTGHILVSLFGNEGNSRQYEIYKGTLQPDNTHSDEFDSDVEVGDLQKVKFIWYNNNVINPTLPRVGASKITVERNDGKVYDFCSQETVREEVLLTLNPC
In words: Pancreatic lipase (PL) inhibitory activity assay using pNPP as substrate. The format is biochemical. The method, then:
Pancreatic Lipase Activity Assay Preparation The pancreatic lipase activity assay uses 4-nitrophenyl palmitate (pNPP) as colorimetric lipase substrate. […] Tris-Borate-EDTA buffer (10X, pH 8.3, PB 1040) was purchased from Vivantis Technologies (Selangor, Malaysia).
Buffer solution was prepared by diluting the 10X Tris-Borate-EDTA buffer (890 mM) into 50 mM solution, followed by addition of 0.35% (m/v) sodium deoxycholate, and adjust pH to 8.3. pNPP solution was prepared by adding pNPP into isopropanol to make a 1.5 mg/mL solution. Both solutions were stored in fridge (4° C.) for further tests. PL solution was prepared by suspending PL in 4° C. buffer solution (10 mg/mL), shaking by vortex mixer for 2 min, and centrifuging at 4° C., 6000 rpm for 5 min. The supernatant was divided into several 0.5 mL aliquots in 0.6 mL PP centrifuge tubes and stored in freezer (-18° C.) for further tests.
High-throughput Pancreatic Lipase Activity Assay. For each sample, 20 µL of extract was transferred into a 0.6 mL PP centrifuge tube, dry up at room temperature for 10 min, followed by adding 300 µL buffer solution. The mixture was sonicated thoroughly in water bath sonicator, 150 µL of the sample was transferred onto a 96-well microplate (Corning, clear polystyrene, USA), and incubated in microplate reader (Synergy HT, Biotek Instruments Inc., Winooski, VT, USA) at 37° C. for 15 min. Meanwhile, frozen lipase solution was thawed in room temperature, 10 µL of which was added into the well, and incubate at 37° C. for another 10 min. Finally, the reaction starts by adding 10 µL pNPP solution into each well. The reading wavelength was fixed at 410 nm, 3 s shaking before each reading, and a 1-hour kinetic data was obtained by a reading interval of 20 or 60 seconds. Negative control group (blank) was prepared by adding 20 µL pure solvent instead of extract in the first step.
The tendency of readings in the first 3 minutes were regarded as linear growth, and the slope was calculated by linear regression in Excel (Office 2016, Microsoft, USA). The inhibition activity of each sample is calculated in percentage inhibition by Eq. 1.
Comparator PL Inhibitory Assay (pNPP as substrate). p-Nitrophenyl palmitate (pNPP) is a synthetic chemical probe widely used in PL inhibitory assay. Long chain fatty acid (palmitic acid) and chromatic indicator (p-nitrophenol) are linked by an ester bond, and the molecule works as a substrate of PL. Hydrolyzed by PL in buffer solution, pNPP molecules release the indicators, and a yellowish color is presented. PL activity is indicated by the speed of color gain by time, and the color could be measured by optical density at 410 nm by a spectrometer. […] According to Michaelis-Menten equation, PL activity could be presented by the initial rate of the reaction. […] The inhibition is calculated percentage by Eq.1, and a dose-response curve could be plotted according to PL inhibition under different inhibitor concentrations (FIG. 1B). Fitting with proper model, IC50 could be calculated by plugging 50% into the fitted formula.

Where [1] appears, read: isolated resin glycosides of sweet potato tuber, read-out: PL inhibition IC50.
Setting [2] is: lipase inhibition, resin glycosides in fraction F5.1.23.34 of sweet potato tuber, read-out: IC50.
Where [3] appears, read: lipase inhibition, resin glycosides in fraction F5.1.23.34 of sweet potato tuber, read-out: IC50 (µg/mL) (converted).
Setting [4] is: lipase inhibition, resin glycosides in fraction F5.1.23.34 of sweet potato tuber.

Like-named read-outs stand apart in the source and are kept apart here.

On to `CCCCCC1CCCCCCCCCC(=O)OC2C(O)C(OC(C)C2OC2OC(C)C(OC3OC(C)C(OC(=O)C(C)CC)C(OC(=O)C=Cc4ccccc4)C3O)C(OC3OC(C)C(O)C(O)C3O)C2OC(=O)C(C)CC)OC2C(O1)OC(C)C(O)C2O` (stereo not shown) [Pescaprein XXVII], for which the IC50 runs as follows: under setting [1], 4.9 to 6.7 µM; under setting [2], 5.6 µM; under setting [3], 5.61 µM.
The matching figures for `CCCCC[C@H]1CCCCCCCCCC(=O)O[C@H]2[C@H](O[C@H]3[C@H](O1)O[C@H](C)[C@H](O)[C@@H]3O)O[C@@H](C)[C@H](O[C@@H]1O[C@@H](C)[C@H](O[C@@H]3O[C@@H](C)[C@H](OC(=O)[C@@H](C)CC)[C@@H](OC(=O)/C=C/c4ccccc4)[C@H]3O)[C@@H](O[C@@H]3O[C@@H](C)[C@H](O)[C@@H](O)[C@H]3O)[C@H]1OC(=O)[C@@H](C)CC)[C@H]2O` [Batatoside III]: 4.9 to 6.7 µM, 4.9 µM and 4.91 µM.
As for Batataoside II, the “IC50 (µg/mL)” value under setting [4] worked out at 7.6 µg/mL. Besides, the IC50 under setting [2] turned out to be 6 µM.
On to Batataoside I, for which the “IC50 (µg/mL)” value under setting [4] was 8.5 µg/mL. Also, the IC50 under setting [2] amounted to 6.7 µM.
